Data as given in patent US20240287063A1, “METHIONINE ADENOSYLTRANSFERASE 2A INHIBITOR” (NANJING CHIA TAI TIANQING PHARMACEUTICAL CO., LTD., priority 2021, published 2024).

Key:
[1] = tested on: HCT116 MTAP−/− subcutaneous xenograft tumors; test: In vivo effect experiment of HCT116 MTAP−/− subcutaneous xenograft tumors in nude mice; conditions: 50 mg/kg daily intragastric
Description: Female Nu/Nu nude mice (6-8 weeks old, Beijing Vital River Laboratory Animal Technology Co., Ltd.) were raised in an SPF animal room at a temperature of 20° C.-25° C., relative humidity of 40%-70%, and light and dark lighting for 12 hours each; and animals can freely drink and eat. The animals were adaptively fed before experiment.
HCT116 MTAP^−/− cells (Horizon) were cultured in vitro for proliferation, cells in logarithmic growth phase were collected and resuspended in a serum-free RPMI-1640 medium, and the cell concentration was adjusted to 6.0×10^7 cells/mL; and 100 μL of the cell suspension was injected subcutaneously into the right anterior armpit of each nude mouse by using a 1 mL syringe, the status of the animals was observed regularly, and the growth of transplanted tumors was monitored regularly.
When the tumor volume reached 100-300 mm^3, animals with too large or too small tumor volume or uncertain tumor formation were eliminated, and tumor bearing mice with good health and similar tumor volume were selected and randomly grouped, 6 mice in each group; the administration group received daily intragastric administration (AG-270: 50 mg/kg, with a structure shown below; compound to be tested: 1-7.5 mg/kg); and the control group was intragastrically administrated with the same volume of blank solvent. In the administration period, the tumor diameter was measured twice a week, the tumor volume was calculated, the animals were weighed, and their weight was recorded.
A formula for calculating tumor volume (TV) is: Tv=½×a×b^2, wherein a represents long diameter of the tumor, and b represents short diameter of the tumor.
Experimental data is calculated and statistically processed by using Microsoft Office Excel 2007 software. Unless otherwise specified, the data were expressed as mean±standard error (Mean SEM), and t-test is used for comparison between two groups.
Growth curves of tumor volume in each group are shown in FIG. 1, results of SAM test in tumors of each group are shown in FIG. 2, and the mean tumor volume and SEM in each group are shown in Table 2 below: […]

[2] = biological target: T1, MAT2A enzyme (Homo sapiens, UniProt P31153); test: Enzymatic testing method for MAT2A (Biomol Green, OD620); format: biochemical; conditions: score by IC50 for inhibiting MAT2A; read-out: MAT2A inhibition score
T1 construct: purchased BPS 71401
T1 sequence (P31153 whole entry): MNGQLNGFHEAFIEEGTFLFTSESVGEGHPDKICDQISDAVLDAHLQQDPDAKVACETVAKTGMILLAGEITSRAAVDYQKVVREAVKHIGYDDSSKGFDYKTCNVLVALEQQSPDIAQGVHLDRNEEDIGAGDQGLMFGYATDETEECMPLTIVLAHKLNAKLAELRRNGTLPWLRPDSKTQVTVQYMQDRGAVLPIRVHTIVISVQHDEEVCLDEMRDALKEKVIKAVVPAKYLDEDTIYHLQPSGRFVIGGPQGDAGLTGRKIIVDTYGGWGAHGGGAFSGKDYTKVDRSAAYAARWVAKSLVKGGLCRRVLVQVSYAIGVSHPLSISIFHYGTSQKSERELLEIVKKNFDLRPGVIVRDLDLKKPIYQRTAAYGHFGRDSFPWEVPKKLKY
Description: • a) A 5×MAT2A test buffer (250 mM Tris-HCl, pH 8.0; 250 mM KCl; 75 mM MgCl2; 0.025% BSA; 0.05% Brij35; 1.5 mM EDTA) was first prepared and partially diluted to 1× for later use; • b) Preparation and addition of MAT2A enzyme (BPS, 71401): the MAT2A enzyme was prepared into 3.674 ng/L by using the 1×MAT2A test buffer (1.67×, final concentration 2.20 ng/L), a BioTek (MultiFlo FX) automatic liquid separator was used, 15 μL of 1.67×MAT2A enzyme solution was added to compound test wells and negative control wells respectively, and 15 μL of 1×MAT2A test buffer was added to blank control wells; • c) Preparation and addition of a compound: a compound to be tested was diluted with DMSO from 10 mM stock solution to 100 μM, a positive drug AGI-24512 was diluted under the same conditions, and the diluted compound and positive drug were automatically sprayed into each well by using a Tecan compound titrator (D300e) according to preset concentration gradients, where the spray volume was little and negligible. The concentration gradient was initially 1 μM, the dilution was implemented by ½ log, and a total of 8 gradients were set. Centrifugation at 2500 rpm for 30 s and incubation at 25° C. for 30 min were performed; • d) Preparation of ATP: 10 mM ATP (Sigma, A7699) was diluted with 1×MAT2A test buffer to 700 μM for later use; • e) Preparation and addition of a substrate and ATP mixture: 5×MAT2A test buffer, 3 μL/well; 750 μM L-methionine (Adamas, 01100469), 2.5 μL/well; 700 μM ATP, 2.5 μL/well; and double distilled water, 2 μL/well. A total amount of required mixture was prepared according to the number of test wells, and 10 μL of the mixture was added to each well by using the BioTek (MultiFlo FX) automatic liquid separator, followed by centrifugation at 2500 rpm for 30 s and reaction at 25° C. for 150 min; • f) Addition of Biomol Green detection reagent: 50 μL of Biomol Green (Enzo, BML-AK111) was added to each well by using the BioTek (MultiFlo FX) automatic liquid separator, followed by centrifugation at 2500 rpm for 30 s and incubation at 25° C. for 20 minutes; • g) After the reaction, OD620 values were read by using a Perkin Elmer (Envision 2105) multifunctional plate reader.
A formula for calculating an inhibition rate was as follows: […]
Wherein, • % Inhibition: inhibition rate % • ODsample: OD620 value in a sample well; • ODmin: representing a mean OD620 value of blank control wells without the enzyme or compound to be tested; • ODmax: representing a mean OD620 value of negative control wells with the enzyme and without the compound.
Then a dose-effect curve log(inhibitor) vs. response-Variable slope was fitted by usingGraphPad Prism 5 software to obtain an IC50 value of compound for MAT2A enzyme inhibition.

Compound	IC50 [2]	also measured
COc1ccc(-c2c(Nc3ccccn3)[nH]c3c(C4=CCCCC4)c(-c4ccccc4)nn3c2=O)cc1 [AG-270, reference compound]	–	Tumor volume, mean volume ([1]; day 1 of administration): 154 mm^3; Tumor volume, mean volume ([1]; day 4 of administration): 189 mm^3; Tumor volume, mean volume ([1]; day 6 of administration): 219 mm^3; Tumor volume, mean volume ([1]; day 8 of administration): 244 mm^3; Tumor volume, mean volume ([1]; day 11 of administration): 303 mm^3; Tumor volume, mean volume ([1]; day 13 of administration): 369 mm^3; Tumor volume, mean volume ([1]; day 15 of administration): 419 mm^3
O=c1c(-c2ccc(OC(F)F)cc2)cn2ccc(-c3ccc(OC(F)F)cc3)cc2c1-c1ccc(OC(F)F)cc1 [Example 1, 1,3,8-tris(4-(difluoromethoxy)phenyl)-2H-quinolizin-2-one]	0.05 to 0.2 µM	–
O=c1c(-c2ccc(OC(F)F)cc2)cn2ccc(Cl)cc2c1-c1ccc(OC(F)F)cc1 [Example 2, 8-chloro-1,3-bis(4-(difluoromethoxy)phenyl)-2H-quinolizin-2-one]	< 0.05 µM	–
Cn1nc2ccc(-c3cn4ccc(C5CC5)cc4c(-c4ccc5nn(C)c(N)c5c4)c3=O)cc2c1N [Example 5, 1,3-bis(3-amino-2-methyl-2H-indazol-5-yl)-8-cyclopropylquinolizin-2-one]	> 1 µM	–
Cn1nccc1-c1c2cc(-c3cn4ccc(C5CC5)cc4c(-c4ccc5nn(C)c(-c6ccnn6C)c5c4)c3=O)ccc2nn1C [Example 8, 8-cyclopropyl-1,3-bis[2-methyl-3-(2-methylpyrazol-3-yl)indazol-5-yl]quinolizin-2-one]	> 1 µM	–
O=C1NC2(CC2)Cn2nc3ccc(-c4cn5ccc(NCC(F)(F)F)nc5c(-c5ccc(OC(F)F)cc5)c4=O)cc3c21 [Example 14, 9′-{9-[4-(difluoromethoxy)phenyl]-8-oxo-2-[(2,2,2-trifluoroethyl)amino]pyrido[1,2-a]pyrimidin-7-yl}-2′,4′-dihydrospiro[cyclopropane-1,3′-pyrazino[1,2-b]indazol]-1′-one]	< 0.05 µM	–
Nc1nc2ccc(-c3cn4ccc(NCC(F)(F)F)nc4c(-c4ccc(OC(F)F)cc4)c3=O)cc2s1 [Example 18]	< 0.05 µM	–
N#CCn1cc2cc(-c3cn4ccc(NCC(F)(F)F)nc4c(-c4ccc(OC(F)F)cc4)c3=O)ccc2n1 [Example 19, 2-(5-{9-[4-(difluoromethoxy)phenyl]-8-oxo-2-[(2,2,2-trifluoroethyl)amino]pyrido[1,2-a]pyrimidin-7-yl}indazol-2-yl)acetonitrile]	< 0.05 µM	–
O=c1ccn2cc(-c3ccc(OC(F)F)cc3)c(=O)c(-c3ccc(OC(F)F)cc3)c2[nH]1 [Example 21, 7,9-bis[4-(difluoromethoxy)phenyl]-1H-pyrido[1,2-a]pyrimidin-2,8-dione]	> 1 µM	–
Cn1cc2cc(-c3cn4ccc(C5CC5)nc4c(-c4ccc5nn(C)cc5c4)c3=O)ccc2n1 [Example 29, 2-cyclopropyl-7,9-bis(2-methyl-2H-indazol-5-yl)-8H-pyrido[1,2-a]pyrimidin-8-one]	> 1 µM	–
O=c1c(-c2ccc3c(c2)OC(F)(F)O3)cn2ccc(C3CC3)nc2c1-c1ccc2c(c1)OC(F)(F)O2 [Example 30, 2-cyclopropyl-7,9-bis(2,2-difluoro-1,3-benzodioxol-5-yl)-8H-pyrido[1,2-a]pyrimidin-8-one]	> 1 µM	–
COc1ccc(-c2cn3ccc(C4CC4)nc3c(-c3ccc(OC)c(OC)c3)c2=O)cc1OC [Example 31, 2-cyclopropyl-7,9-bis(3,4-dimethoxyphenyl)-8H-pyrido[1,2-a]pyrimidin-8-one]	> 1 µM	–
COc1ccc(-c2cn3ccc(C4CC4)nc3c(-c3ccc4c(c3)OC(F)(F)O4)c2=O)cc1OC [Example 33, 2-cyclopropyl-9-(2,2-difluoro-1,3-benzodioxol-5-yl)-7-(3,4-dimethoxyphenyl)-8H-pyrido[1,2-a]pyrimidin-8-one]	> 1 µM	–
COc1cc(-c2cn3ccc(C4CC4)nc3c(-c3ccc4c(c3)OC(F)(F)O4)c2=O)ccc1OC(F)F [Example 34, 2-cyclopropyl-9-(2,2-difluoro-1,3-benzodioxol-5-yl)-7-[4-(difluoromethoxy)-3-methoxyphenyl]-8H-pyrido[1,2-a]pyrimidin-8-one]	> 1 µM	–
O=C1NC2(CC2)Cn2nc3ccc(-c4cn5ccc(C6CC6)nc5c(-c5ccc(OC(F)F)cc5)c4=O)cc3c21 [Example 35, 9′-(2-cyclopropyl-9-(4-(difluoromethoxy)phenyl)-8-oxo-8H-pyrido[1,2-a]pyrimidin-7-yl)-4′H-spiro[cyclopropane-1,3′-pyrazino[1,2-b]indazol]-1′(2′H)-one]	< 0.05 µM	–
COc1cc(-c2cn3ccc(C4CC4)nc3c(-c3ccc(OC(F)F)c(OC)c3)c2=O)ccc1OC(F)F [Example 37, 2-cyclopropyl-7,9-bis(4-(difluoromethoxy)-3-methoxyphenyl)-8H-pyrido[1,2-a]pyrimidin-8-one]	0.05 to 0.2 µM	–
O=c1c(-c2ccc(OC(F)F)cc2)cn2c(C3CC3)ccnc2c1-c1ccc(OC(F)F)cc1 [Example 40, 4-cyclopropyl-7,9-bis[4-(difluoromethoxy)phenyl]-8H-pyrido[1,2-a]pyrimidin-8-one]	> 1 µM	–
